In publication PMC2062954, “Microencapsulated octreotide pamoate in advanced gastrointestinal and pancreatic cancer: a phase I study” (British Journal of Cancer, 1998):

Assay: Plasma octreotide levels by RIA
Assay type: in vivo, human
Experimental: Norway Summary Fourteen patients suffering from advanced colorectal (n = 7), pancreatic (n = 4) or gastric (n = 3) carcinomas received treatment with microencapsulated octreotide pamoate 90 mg i.m. every 4 weeks (n = 4), 160 mg i.m. every 4 weeks (n = 4) or 160 mg i.m. every 2 weeks (n = 6). […] In this study we evaluate the tolerability. clinical effects, pharmacokinetics and effects on plasma IGF-I and -II of a new microencapsulated formulation of octreotide pamoate in patients suffering from gastrointestinal and pancreatic carci- nomas. […] Thus. apart from deter- mining plasma IGF-I and -HI together with IGFBP-1 and -3 with radioimmunoassay (RIA). we measured IGFBPs using Western ligand blotting and the functional status of IGFBP-3 using immunoblotting. […] PATIENTS AND METHODS Patients Fourteen patients (eight men and six A-omen) with progressive locally advanced and/or metastatic adenocarcinomas of abdominal origin were studied (Table 1). Any other svstemic anti-cancer therapy had been terminated at least 4 weeks before inclusion in the study.

Compound: C[C@@H](O)[C@@H]1NC(=O)[C@H](CCCCN)NC(=O)[C@@H](Cc2c[nH]c3ccccc23)NC(=O)[C@H](Cc2ccccc2)NC(=O)[C@@H](NC(=O)[C@H](N)Cc2ccccc2)CSSC[C@@H](C(=O)N[C@H](CO)[C@@H](C)O)NC1=O [octreotide]
- ratio of peak octreotide level at first day of injection to plasma level just before the next injection (all cohorts, i.m. depot, range, generally two to five times higher, data not shown): 2.2-9.9
- lowest plasma level of octreotide observed at any time during treatment (individual patients, all cohorts, RIA): 3.4 ng/mL
- highest plasma octreotide level (one patient in cohort 3 (160 mg i.m. every 2 weeks), long-term treatment > 6 months, at day 13, subsequent gradual decline): 98.9 ng/mL
